Data on four molecules can be found in US11434237B2, “Selective ligands for tau aggregates” (KARIN & STEN MORTSTEDT CBD SOLUTIONS AB, priority 2017, dated 2022).

In data set [1] the target is T1, tau aggregates (Homo sapiens, UniProt P10636).
T1 construct: tissue sections (20 μm) from human AD brain; from tissue; host or cells: human AD brain tissue sections (20 μm)
Description: Example Compound 3b staining of AD brain sections pre-incubated with PBB3 or PBS. The class given is binding. As to the method: (§1) Frozen brain sections (20 μm) were fixed in 96% EtOH, rehydrated in 50% EtOH and de-ionized water and then incubated in phosphate buffered saline (PBS, 10 mM phosphate, 140 mM NaCl, 2.7 mM KCl, pH 7.4) for 10 min. The sections were stained with solutions containing 1 ? M PBB3 or 1 ? M q-FTAA-CN in PBS for 30 min and after rinsing three times with PBS, the sections was stained with a solution containing 10 nM Example Compound 3b. After 30 min, the sections were washed with PBS and mounted with Dako fluorescent mounting medium (Dako Cytomation, Glostrup, Denmark). The mounting medium was allowed to solidify over night before collecting emission spectra of the compounds bound to misfolded Aβ and tau using an inverted LSM 780 confocal microscope (Carl Zeiss, Oberkochen, Germany) with excitation wavelengths at 405 nm (PBB3 and q-FTAA-CN) and 561 nm (Example Compound 3b).

In data set [2] the target is T2, Aβ aggregates (Homo sapiens, UniProt P05067).
T2 construct: compound and antibody double staining of Aβ or tau aggregates; from tissue; host or cells: human AD brain tissue sections (20 μm)
In words: Compound and antibody 4G8 double staining of AD brain tissue sections. Particulars: for Overlap between Fluorescence from tested compound and fluorescence from 4G8 observed / Fluorescence from tested compound observed: 100 nM compound, human AD brain tissue sections; for Overlap between Fluorescence from tested compound and fluorescence from 4G8 observed: Aβ antibody 4G8; for Fluorescence from tested compound observed: double staining with Aβ antibody 4G8; for Fluorescence from 4G8 observed: signal of Aβ antibody 4G8 in the section stained with 100 nM of the compound. Type of data set: binding. The procedure:
(§2) To achieve compound and antibody double staining of Aβ or tau aggregates, tissue sections (20 μm) from human AD brain were fixed in 70% EtOH at 4° C. for 3 min, rehydrated in distilled water and then incubated in PBS for 30 min. Sections were blocked and permeabilized in PBS with 5% normal goat serum and 0.1% triton X-100 (blocking buffer) for 1 h at room temperature (RT). Antibody 4G8 (Biolegend, San Diego, Calif., USA) reactive to Aβ, and AT100 (Thermo Fisher Scientific, Waltham, Mass., USA) directed against tau phosphorylated at […] (3) were diluted 1:500 and 1:1000, respectively, in blocking buffer and added to the sections. After 16 h incubation at 4° C. unbound antibody was removed by washing in PBS with 0.1% triton X-100 (PBS-T) 3×10 min. To visualize antibody binding to Aβ or tau aggregates sections were incubated with goat anti-mouse secondary antibody labelled with Alexa 647 (Thermo Fisher Scientific). The antibody was diluted 1:200 in blocking buffer and after 1 h incubation at RT sections were washed in PBS 3×10 min. Example Compound 3a, Example Compound 3b, Example Compound 3c, Example Compound 3d, Example Compound 3e, Example Compound 3f, Example Compound 3g, Example Compound 3h, Example Compound 3i, Example Compound 3j, Example Compound 3k, Example Compound 3m, Example Compound 3n, Example Compound 3o, Example Compound 3p, Example Compound 3q, Example Compound 3r, Example Compound 3s, Example Compound 3t, Example Compound 3u, Example Compound 8a, Comparative Example 1, Comparative Example 2, Comparative Example 3 and Comparative Example 4 were dissolved in DMSO to a concentration of 1.5 mM and then further diluted in PBS to a final concentration of 100 nM compound prior to staining. The tissue sections were then stained for 30 min at RT with these freshly prepared solutions containing 100 nM of the respective compound in PBS. After three washes in PBS the sections were mounted in Dako mounting medium for fluorescence (Dako Cytomation, Glostrup, Denmark) and allowed to dry overnight before analysis. Fluorescence images were collected using an inverted LSM 780 confocal microscope (Carl Zeiss, Oberkochen, Germany) with the following excitation/emission wavelengths optimized for each compound: 458/484-600 (Comparative Example 1, Comparative Example 3), 561/569-648 (Example Compound 3a, Example Compound 3b, Example Compound 3c, Example Compound 3d, Example Compound 3e, Example Compound 3f, Example Compound 3g, Example Compound 3h, Example Compound 3i, Example Compound 3j, Example Compound 3k, Example Compound 3m, Example Compound 3n, Example Compound 3o, Example Compound 3p, Example Compound 3q, Example Compound 3r, Example Compound 3s, Example Compound 3t, Example Compound 3u, Example Compound 8a, Comparative Example 2 and Comparative Example 4) and 633/638-755 (Alexa 647). To visualize autofluorescent lipofuscin excitation/emission wavelengths 405/410-480 or 405/410-514 were used.

For data set [3], the target named is T1, tau aggregates. In words: Example Compound 3b staining of AD brain sections pre-incubated with q-FTAA-CN. The class given is binding. Conditions: FIG. 7H, pre-incubated with 1 μM q-FTAA-CN, then 10 nM Example Compound 3b. The procedure: as §1
The subject of data set [4] is Aβ and tau deposits. Description: Co-staining of AD brain sections with PBB3 and Example Compound 3b. Conditions: simultaneous 100 nM PBB3 and 100 nM Example Compound 3b. Type of data set: binding, human. As to the method:
(§3) Frozen brain sections (20 μm) were fixed in 96% EtOH, rehydrated in 50% EtOH and de-ionized water and then incubated in phosphate buffered saline (PBS, 10 mM phosphate, 140 mM NaCl, 2.7 mM KCl, pH 7.4) for 10 min. Solutions containing 100 nM PBB3 and 100 nM Example Compound 3b or 100 nM q-FTAA-CN and 100 nM Example Compound 3a in PBS were added to the sections. After 30 min, the sections were washed with PBS and mounted with Dako fluorescent mounting medium (Dako Cytomation, Glostrup, Denmark). The mounting medium was allowed to solidify over night before collecting emission spectra of the compounds bound to misfolded A ? and tau using an inverted LSM 780 confocal microscope (Carl Zeiss, Oberkochen, Germany) with excitation wavelengths at 405 nm (PBB3 and q-FTAA-CN) and 561 nm (Example Compound 3a and Example Compound 3b).

The target in data set [5] is T1, tau aggregates. In words: Compound and antibody AT100 double staining of AD brain tissue sections. Type of data set: binding. Particulars: for Labelling of immune-positive NFTs and dystrophic neurites / Fluorescence from tested compound observed / Overlap between Fluorescence from tested compound and fluorescence from AT-100 observed: 100 nM compound; for Labelling of immune-positive NFTs and dystrophic neurites: AT100 co-staining, AD brain sections; for Fluorescence from tested compound observed / Overlap between Fluorescence from tested compound and fluorescence from AT-100 observed: human AD brain tissue sections; for Fluorescence from tested compound observed: double staining with tau antibody AT-100; for Overlap between Fluorescence from tested compound and fluorescence from AT-100 observed: tau antibody AT-100; for Fluorescence from AT-100 observed: signal of tau antibody AT-100 in the section stained with 100 nM of the compound. As to the method:
as §2

The nature of data set [6]: Excitation and emission spectra of compounds in DMSO or PBS. Particulars: 300 nM in DMSO or PBS pH 7.4. The class given is physicochemical. The procedure:
Stock solutions of Example Compound 3a, Example Compound 3b, Example Compound 3c, Example Compound 3d and Example Compound 8a (1.5 mM in DMSO) were diluted to 300 nM in phosphate buffered saline (PBS, 10 mM phosphate, 140 mM NaCl, 2.7 mM KCl, pH 7.4) or DMSO. Excitation and emission spectra of the compounds were collected using an Infinite M1000 Pro microplate reader (Tecan, Männedorf, Switzerland).

Data set [7] concerns Aβ and tau deposits. In words: Staining of AD brain sections with PBB3 alone. Type of data set: binding, human. Conditions: 100 nM PBB3 alone in PBS pH 7.4, FIG. 6A. As to the method:
as §1, with “100 nM” for “1 ? M”, “PBB3” for “PBB3 or 1 ? M q-FTAA-CN”, “with” for “with PBS, the sections was stained with a solution containing 10 nM Example Compound 3b. After 30 min, the sections were washed with”, “PBS” for “PBS and”, “compound” for “compounds”, “(PBB3).” for “(PBB3 and q-FTAA-CN) and 561 nm (Example Compound 3b).”

Data set [8] relates to Aβ and tau deposits. Description: Co-staining of AD brain sections with q-FTAA-CN and Example Compound 3a. Type of data set: binding, human. Particulars: simultaneous staining, 100 nM q-FTAA-CN and 100 nM Example Compound 3a. The procedure:
as §3

The mark [9] stands for this setting: FIG. 7F, pre-incubated with 1 μM PBB3, then 10 nM Example Compound 3b.

T1 sequence (P10636 1-441 isoform P10636-8): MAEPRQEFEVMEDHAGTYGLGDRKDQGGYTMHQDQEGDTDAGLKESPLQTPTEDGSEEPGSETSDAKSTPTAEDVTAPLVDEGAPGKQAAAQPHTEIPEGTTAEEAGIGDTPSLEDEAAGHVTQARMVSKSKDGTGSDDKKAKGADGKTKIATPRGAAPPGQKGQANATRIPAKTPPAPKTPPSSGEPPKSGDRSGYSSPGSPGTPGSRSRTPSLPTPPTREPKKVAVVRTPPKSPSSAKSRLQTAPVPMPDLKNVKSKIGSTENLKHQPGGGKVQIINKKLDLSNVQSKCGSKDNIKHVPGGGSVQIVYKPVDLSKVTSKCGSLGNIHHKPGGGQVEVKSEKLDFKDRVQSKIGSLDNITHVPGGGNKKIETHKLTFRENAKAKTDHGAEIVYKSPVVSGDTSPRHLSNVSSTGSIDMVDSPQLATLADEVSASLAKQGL
T2 sequence (P05067 672-713 limits assumed): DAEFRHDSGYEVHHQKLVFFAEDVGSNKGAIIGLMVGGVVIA

On to `CC[n+]1c(/C=C/c2ccc(-c3ccc(I)s3)s2)sc2ccccc21` [Example Compound 3b], for which the “Fluorescence from Example Compound 3b observed” value in data set [1] (setting [9]) was “no observable Example Compound 3b fluorescence and no”. In addition, in data set [1] (FIG. 7G, pre-incubated in PBS only, 10 nM Example Compound 3b), the “Fluorescence from Example Compound 3b observed” value was “fluorescence was observed from the tau aggregates and yes”. Moreover, in data set [2], the “Overlap between Fluorescence from tested compound and fluorescence from 4G8 observed” value is “no correlation and no”; the “Fluorescence from tested compound observed” value is recorded as “yes”; the “Fluorescence from 4G8 observed” value is given as “yes”. For the same molecule, in data set [3], the “Fluorescence from Example Compound 3b observed” value was “observed from the tau aggregates and could easily be observed from the q-FTAA-CN positive NFTs as well as from q-FTAA-CN negative dystrophic neurites and yes”; the “Overlap between Fluorescence from Example Compound 3b and fluorescence from q-FTAA-CN” value is reported as “yes”. In data set [4] (FIG. 7E), the “Fluorescence from Example Compound 3b observed” value is “yes”; the “Overlap between Fluorescence from Example Compound 3b and fluorescence from PBB3” value is on record as “no”. Further, in data set [4], the “Deposits labelled” value was “tau deposits, NFTs and dystrophic neurites, displayed characteristic emission”; the “Selectivity and affinity for tau deposits compared with PBB3” value was “higher selectivity and most likely a higher affinity for tau deposits than PBB3”. Moreover, in data set [5], the “Labelling of immune-positive NFTs and dystrophic neurites” value was “labelled both immune-positive NFTs and dystrophic neurites”; the “Fluorescence from tested compound observed” value is recorded as “yes”; the “Overlap between Fluorescence from tested compound and fluorescence from AT-100 observed” value is on record as “yes”; the “Fluorescence from AT-100 observed” value was “yes”.
As for `COC(=O)c1ccc(-c2ccc(/C=C/c3nc4ccccc4s3)s2)s1` [Example Compound 8a], in data set [2], the “Overlap between Fluorescence from tested compound and fluorescence from 4G8 observed” value is “no correlation and no”; the “Fluorescence from tested compound observed” value is “yes”; the “Fluorescence from 4G8 observed” value was “yes”. Besides, the “Excitation and emission spectra when switching solvent from DMSO to PBS” value in data set [6] is given as “solvatochromatic behavior rendering a blue-shifted excitation spectrum, as well as a red-shifted emission spectrum”. In addition, in data set [5], the “Labelling of immune-positive NFTs and dystrophic neurites” value was “labelled both immune-positive NFTs and dystrophic neurites”; the “Fluorescence from tested compound observed” value was “yes”; the “Overlap between Fluorescence from tested compound and fluorescence from AT-100 observed” value is on record as “yes”; the “Fluorescence from AT-100 observed” value is recorded as “yes”.
In the case of `CNc1ccc(/C=C/C=C/c2nc3ccc(O)cc3s2)cn1` [PBB3, reference compound], the “Fluorescence from PBB3 observed” value is “both the Aβ and tau deposits exhibited strong PBB3 fluorescence and yes” in data set [1] (setting [9]); “yes” in data set [4] (FIG. 7E). Moreover, the “Deposits labelled” value in data set [4] is “Aβ deposits were visualized by the fluorescence from PBB3”; in data set [7] it was “labelled both Aβ and tau deposits”.
Regarding `N#Cc1cc(CC(=O)O)c(-c2ccc(-c3sc(-c4ccc(C(=O)O)s4)cc3CC(=O)O)s2)s1` [q-FTAA-CN, reference compound], the “Fluorescence from q-FTAA-CN observed” value is “observed from both Aβ deposits (small arrow-heads) and tau aggregates and yes” in data set [3]; “labelled both Aβ deposits and NFTs” in data set [3] (listed as q-FTAA); “yes” in data set [8] (FIG. 7A-C). In addition, the “Deposits labelled” value in data set [8] was “selectively labelled Aβ deposits”.
